Source: ChEMBL document CHEMBL1201862, “PubChem BioAssay data set” (2004)
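Interpolation was linear, between the two tested concentrations surrounding the appropriate level; five concentrations were tested over 48 hours in 96-well plates. At the GI50, growth is halved.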 Activity calls are given as the source filed them. No stated cut-off is given here; in the data, active = GI50 up to about 1.1 µM and inactive = higher.

Tests used:
Experiment in all cases: NCI anticancer screen, dose series, 48 h
EKVX = system: EKVX
M14 = system: M14
OVCAR-3 = system: OVCAR-3
KM-20L2 = system: KM-20L2
RPMI-8226 = system: RPMI-8226
SK-MEL-2 = system: SK-MEL-2
NCI-H522 = system: NCI-H522
HCT-116 = system: HCT-116
SF-268 = system: SF-268
OVCAR-5 = system: OVCAR-5
UACC-257 = system: UACC-257
UO-31 = system: UO-31
CCRF-CEM = system: CCRF-CEM
HCT-15 = system: HCT-15
NCI-H23 = system: NCI-H23
SF-539 = system: SF-539
MOLT-4 = system: MOLT-4
U-251 = system: U-251
CAKI-1 = system: CAKI-1
HOP-18 = system: HOP-18
SNB-78 = system: SNB-78
HOP-62 = system: HOP-62
HL-60 = system: HL-60
UACC-62 = system: UACC-62
A549 = system: A549
ACHN = system: ACHN
SNB-19 = system: SNB-19
TK-10 = system: TK-10
NCI-H226 = system: NCI-H226
SK-MEL-5 = system: SK-MEL-5
HT-29 = system: HT-29
OVCAR-8 = system: OVCAR-8
OVCAR-4 = system: OVCAR-4
DMS-114 = system: DMS-114
NCI-H460 = system: NCI-H460
COLO 205 = system: COLO 205
IGROV-1 = system: IGROV-1
SN12C = system: SN12C
HCC 2998 = system: HCC 2998
LXFL 529 = system: LXFL 529
SK-MEL-28 = system: SK-MEL-28
SK-OV-3 = system: SK-OV-3
DLD-1 = system: DLD-1
SR = system: SR
SW-620 = system: SW-620
HOP-92 = system: HOP-92
Malme-3M = system: Malme-3M
SF-295 = system: SF-295
XF498 = system: XF498
K562 = system: K562
M19-MEL = system: M19-MEL
RXF 393 = system: RXF 393
SNB-75 = system: SNB-75
KM12 = system: KM12
DMS-273 = system: DMS-273
786-0 = system: 786-0
MDA-MB-435 = system: MDA-MB-435
A498 = system: A498
T47D = system: T47D
Hs-578T = system: Hs-578T
LOX IMVI = system: LOX IMVI
MDA-MB-231 = system: MDA-MB-231
BT-549 = system: BT-549
MCF7 = system: MCF7
DU-145 = system: DU-145

`O=C(Nc1ccc(Cl)cc1)c1cc2cc(/N=N/c3ccccc3Cl)ccc2oc1=O` was tested, and the GI50 (EKVX) was 25.5 µM (inactive), the GI50 (M14) was 15.5 µM (inactive) and the GI50 (OVCAR-3) was 22.2 µM (inactive). The GI50 (KM-20L2) was 4.93 µM (inactive), the GI50 (RPMI-8226) was 4.76 µM (inactive) and the GI50 (SK-MEL-2) was 18.1 µM (inactive). The GI50 (NCI-H522) was 21.7 µM (inactive), the GI50 (HCT-116) was 11.2 µM (inactive) and the GI50 (SF-268) was 15.2 µM (inactive). The GI50 (OVCAR-5) was 44.6 µM (inactive), the GI50 (UACC-257) was 19.2 µM (inactive) and the GI50 (UO-31) was 11.6 µM (inactive). For the same compound, the GI50 (CCRF-CEM) was 2.01 µM (inactive), the GI50 (HCT-15) was 2.74 µM and the GI50 (NCI-H23) was 13.3 µM (inactive). The GI50 (SF-539) was 14 µM (inactive), the GI50 (MOLT-4) was 2.58 µM (inactive) and the GI50 (U-251) was 14.2 µM (inactive). The GI50 (CAKI-1) was 24.9 µM (inactive), the GI50 (HOP-18) was 33.8 µM (inactive) and the GI50 (SNB-78) was 22.9 µM (inactive). The GI50 (HOP-62) was 26.9 µM (inactive), the GI50 (HL-60) was 2.14 µM (inactive) and the GI50 (UACC-62) was 8.39 µM (inactive). The GI50 (A549) was 29.2 µM (inactive), the GI50 (ACHN) was 6.3 µM (inactive) and the GI50 (SNB-19) was 27.5 µM (inactive). For the same compound, the GI50 (TK-10) was 33.3 µM (inactive), the GI50 (NCI-H226) was 22.3 µM (inactive) and the GI50 (SK-MEL-5) was 22.2 µM (inactive). For the same compound, the GI50 (HT-29) was 15.2 µM (inactive), the GI50 (OVCAR-8) was 13.4 µM (inactive) and the GI50 (OVCAR-4) was 22 µM (inactive). The GI50 (DMS-114) was 5.81 µM (inactive), the GI50 (NCI-H460) was 26.8 µM (inactive) and the GI50 (COLO 205) was 34.1 µM (inactive). For the same compound, the GI50 (IGROV-1) was 19 µM (inactive), the GI50 (SN12C) was 18.7 µM (inactive) and the GI50 (HCC 2998) was 18.9 µM (inactive). For the same compound, the GI50 (LXFL 529) was 8.11 µM (inactive), the GI50 (SK-MEL-28) was 15.9 µM (inactive) and the GI50 (SK-OV-3) was 46.9 µM (inactive). The GI50 (DLD-1) was 9.64 µM (inactive), the GI50 (SR) was 15.8 µM (inactive) and the GI50 (SW-620) was 18.1 µM (inactive). The GI50 (HOP-92) was 18.9 µM (inactive), the GI50 (Malme-3M) was 18.5 µM (inactive) and the GI50 (SF-295) was 28.7 µM (inactive). For the same compound, the GI50 (XF498) was 24.4 µM (inactive), the GI50 (K562) was 5.28 µM (inactive) and the GI50 (M19-MEL) was 14.3 µM (inactive). The GI50 (RXF 393) was 46.9 µM (inactive) and the GI50 (SNB-75) was 24 µM (inactive).

With `COc1cc2c(c(OC)c1OC)-c1ccc(OC)c(=O)cc1C(NC(=O)c1ccc(N=[N+]=[N-])cc1)CC2` (stereo not given) the GI50 (KM12) was 0.0234 µM (active), the GI50 (EKVX) was 0.132 µM (active) and the GI50 (M14) was 0.037 µM (active). For the same compound, the GI50 (OVCAR-3) was 0.0255 µM (active), the GI50 (KM-20L2) was 0.0188 µM (active) and the GI50 (RPMI-8226) was 0.0359 µM (active). The GI50 (DMS-273) was 0.0244 µM (active), the GI50 (SK-MEL-2) was 0.0327 µM (active) and the GI50 (NCI-H522) was 0.0175 µM (active). For the same compound, the GI50 (HCT-116) was 0.0334 µM (active), the GI50 (SF-268) was 0.0557 µM (active) and the GI50 (786-0) was 0.0446 µM (active). The GI50 (UACC-257) was 0.615 µM (active), the GI50 (UO-31) was 9.08 µM (inactive) and the GI50 (CCRF-CEM) was 0.0316 µM (active). The GI50 (HCT-15) was 0.111 µM, the GI50 (NCI-H23) was 0.0327 µM (active) and the GI50 (SF-539) was 0.0238 µM (active). For the same compound, the GI50 (MDA-MB-435) was 0.0134 µM (active), the GI50 (MOLT-4) was 0.0411 µM (active) and the GI50 (A498) was 0.0186 µM (active). For the same compound, the GI50 (U-251) was 0.0307 µM (active), the GI50 (CAKI-1) was 0.032 µM (active) and the GI50 (T47D) was > 100 µM (inactive). For the same compound, the GI50 (HOP-18) was > 84.9 µM (inactive), the GI50 (SNB-78) was 0.03 µM (active) and the GI50 (HOP-62) was 0.0413 µM (active). The GI50 (HL-60) was 0.0272 µM (active), the GI50 (UACC-62) was 0.0275 µM (active) and the GI50 (A549) was 0.0408 µM (active). The GI50 (Hs-578T) was 0.084 µM (active), the GI50 (ACHN) was 0.0809 µM (active) and the GI50 (SNB-19) was 0.0767 µM (active). The GI50 (TK-10) was 13 µM (inactive), the GI50 (NCI-H226) was 0.451 µM (active) and the GI50 (SK-MEL-5) was 0.0264 µM (active). The GI50 (LOX IMVI) was 0.0423 µM (active), the GI50 (HT-29) was 0.0288 µM (active) and the GI50 (OVCAR-8) was 0.0335 µM (active). The GI50 (OVCAR-4) was 1.24 µM (inactive), the GI50 (DMS-114) was 0.0257 µM (active) and the GI50 (MDA-MB-231) was 0.0352 µM (active). For the same compound, the GI50 (NCI-H460) was 0.031 µM (active), the GI50 (COLO 205) was 0.021 µM (active) and the GI50 (IGROV-1) was 0.0466 µM (active). The GI50 (SN12C) was 0.0514 µM (active), the GI50 (BT-549) was 0.0507 µM (active) and the GI50 (MCF7) was 0.0144 µM (active). For the same compound, the GI50 (HCC 2998) was 0.0215 µM (active), the GI50 (LXFL 529) was 0.0372 µM (active) and the GI50 (SK-MEL-28) was 0.789 µM (active). The GI50 (SK-OV-3) was 0.0292 µM (active), the GI50 (DLD-1) was 0.0413 µM (active) and the GI50 (SR) was 0.0435 µM (active). The GI50 (SW-620) was 0.0312 µM (active), the GI50 (HOP-92) was 0.0396 µM (active) and the GI50 (Malme-3M) was 0.608 µM (active). The GI50 (DU-145) was 0.0378 µM (active), the GI50 (SF-295) was 0.0246 µM (active) and the GI50 (K562) was 0.0246 µM (active). The GI50 (M19-MEL) was 0.0581 µM (active), the GI50 (RXF 393) was 0.0185 µM (active) and the GI50 (SNB-75) was 0.766 µM (active).

With `O=C(CC1=Nc2nnc(CCCCCCCc3nnc4n3C(=O)C(CC(=O)c3ccccc3)=N4)n2C1=O)c1ccccc1` the GI50 (KM12) was > 100 µM (inactive), the GI50 (EKVX) was > 100 µM (inactive) and the GI50 (M14) was > 100 µM (inactive). For the same compound, the GI50 (OVCAR-3) was > 100 µM (inactive), the GI50 (KM-20L2) was > 100 µM (inactive) and the GI50 (RPMI-8226) was > 100 µM (inactive). For the same compound, the GI50 (NCI-H522) was > 100 µM (inactive), the GI50 (HCT-116) was > 100 µM (inactive) and the GI50 (SF-268) was > 100 µM (inactive). The GI50 (786-0) was > 100 µM (inactive), the GI50 (OVCAR-5) was > 100 µM (inactive) and the GI50 (UACC-257) was > 100 µM (inactive). For the same compound, the GI50 (UO-31) was > 100 µM (inactive), the GI50 (CCRF-CEM) was > 100 µM (inactive) and the GI50 (HCT-15) was greater than 100 µM. The GI50 (NCI-H23) was > 100 µM (inactive), the GI50 (SF-539) was > 100 µM (inactive) and the GI50 (MOLT-4) was > 100 µM (inactive). For the same compound, the GI50 (A498) was > 100 µM (inactive), the GI50 (U-251) was > 100 µM (inactive) and the GI50 (CAKI-1) was > 100 µM (inactive). The GI50 (HOP-18) was > 100 µM (inactive), the GI50 (HOP-62) was > 100 µM (inactive) and the GI50 (HL-60) was > 100 µM (inactive). The GI50 (UACC-62) was > 100 µM (inactive), the GI50 (A549) was > 100 µM (inactive) and the GI50 (ACHN) was > 100 µM (inactive). The GI50 (SNB-19) was > 100 µM (inactive), the GI50 (TK-10) was > 100 µM (inactive) and the GI50 (NCI-H226) was > 100 µM (inactive). The GI50 (SK-MEL-5) was > 100 µM (inactive), the GI50 (LOX IMVI) was > 100 µM (inactive) and the GI50 (HT-29) was > 100 µM (inactive). The GI50 (OVCAR-8) was > 100 µM (inactive), the GI50 (DMS-114) was > 100 µM (inactive) and the GI50 (NCI-H460) was > 100 µM (inactive). For the same compound, the GI50 (COLO 205) was > 100 µM (inactive), the GI50 (IGROV-1) was > 100 µM (inactive) and the GI50 (SN12C) was > 100 µM (inactive). The GI50 (HCC 2998) was > 100 µM (inactive), the GI50 (LXFL 529) was > 100 µM (inactive) and the GI50 (SK-MEL-28) was > 100 µM (inactive). For the same compound, the GI50 (SK-OV-3) was > 100 µM (inactive), the GI50 (DLD-1) was > 100 µM (inactive) and the GI50 (SR) was > 100 µM (inactive). For the same compound, the GI50 (SW-620) was > 100 µM (inactive), the GI50 (HOP-92) was > 100 µM (inactive) and the GI50 (Malme-3M) was > 100 µM (inactive). For the same compound, the GI50 (SF-295) was > 100 µM (inactive), the GI50 (XF498) was > 100 µM (inactive) and the GI50 (K562) was > 100 µM (inactive). The GI50 (M19-MEL) was > 100 µM (inactive), the GI50 (RXF 393) was > 100 µM (inactive) and the GI50 (SNB-75) was > 100 µM (inactive).
